According to patent publication US10023565B2, “N,N′ substituted piperidinamine compounds, and preparation method and usage thereof” (Institute of Pharmacology and Toxicology Academy of …, priority 2013, dated 2018):
Several values for one entry are separate records, joined by “and”; a condition that tells them apart may be missing. Identical values can stand only once. Like-named read-outs stand apart in the source and are kept apart here.

Assay: Mice pharmacokinetic evaluation (LC-MS/MS of plasma)
Format: in vivo, ICR mice
Conditions: for Cmax: read-out: Cmax; for Plasma concentration of active compound: listed as Mol
Experimental: Mice pharmacokinetic evaluation of the compound of Example 36 according to the method described below
ICR mice, SPS grade, male, weighed […], license number SCXK (Beijing) 2012-0001, purchased from Beijing Vital River Laboratory Animal Technology Co. Ltd.
Chromatographic conditions: Analytical column: Capcell Pak MG, 5 μm particle size, 50×2.0 mm I.D. (Shiseido Co.), connected with C18 guard column, 4×3.0 mm I.D. (PhenomenexCo., USA), column temperature 25° C., mobile phase: acetonitrile −2 mM ammonium acetate (65:35, v/v), flow rate 0.3 ml/min, internal standard: loratadine.
MS conditions: Electrospray ionization source (Turbo Ionspray source), positive ion mode detection; spray voltage 4500 V; source temperature 400° C.; nebulizer gas (NEB) 8; curtain gas (CUR) 10; collision gas (CAD) 4; scanning mode: multiple reaction monitoring (MRM), ion reactions for quantitative analysis: m/z 354.4→m/z 154.1 (Mol, CE 43 V) and m/z 383→m/z 337 (internal standard loratadine, CE 32 V), scanning time 150 msec.
To 50 μl of plasma, were added 10 μl of internal standard solution (125 ng/ml aqueous solution of loratadine), and 500 μl of n-hexane-dichloromethane-isopropanol (100:50:5, v/v/v); they were uniformly mixed, followed by vortexing for 3 min, and centrifuging for 10 min (3000 rpm); the supernatant was taken and blow dried with air streamat 40° C.; the residue was dissolved with 150 μl […], and subjected to LC-MS/MS analysis.
30 ICR male mice were randomly divided into […], five mices each group, including Mol 10 mg/kg oral group and 1.0 mg/kg tail intravenous injection group. For oral group, before administration, the animals were fasted for 12 h, with free access to water; 0.08, 0.25, 0.5, 1, 2, 4, 6, 8, 12 and 24 h after intragastrical administration, 0.1 ml of orbital venous sinus blood was taken, placed in anticoagulation tube containing heparin sodium, and subjected to 3000 g centrifugation for 15 min; and then, the plasma was taken and stored in a −20° C. refrigerator. […]
Pharmacokinetic parameters were calculated using non-compartment model of Winnonlin® software (Version 5.2.1, USA). Cmax is the measured maximum plasma concentration, Tmax is time to peak plasma concentration after oral administration, t1/2 is drug terminal elimination halflife, MRT is average residence time of drug in vivo, the area AUC0-t under plasma concentration—time curve is calculated by trapezoidal method.
Bioavailability is calculated as follows: […]
AUC: Area (h*ng/ml) under the curve; D: dose (mg/kg)

[1] = male, ICR, mouse, plasma, po, 10 mg/kg, Po 10 mg/kg, Mean ± SD, n = 3
[2] = male, ICR, mouse, plasma, po, 10 mg/kg, Po 10 mg/kg, individual mice 1-3
[3] = male, ICR, mouse, plasma, po, 10 mg/kg, oral 10 mg/kg, Mean, read-out: Plasma concentration of active compound
[4] = male, ICR, mouse, plasma, po, 10 mg/kg, oral 10 mg/kg, individual mice 1-3, read-out: Plasma concentration of active compound

## CSc1nccc(N2CCC(N(C)Cc3ccc(C#N)cc3)CC2)n1 [Example 36, N-methyl-N-(4-cyanobenzyl)-N-[1-(2-methylthiopyrimidin-4-yl)piperidin-4-yl]amine]
male, ICR, mouse, plasma, iv, 1 mg/kg, intravenous 1.0 mg/kg, Mean, read-out: Plasma concentration of active compound
  concentration at 0.17 h: 62.8 ng/mL
male, ICR, mouse, plasma, iv, 1 mg/kg, intravenous 1.0 mg/kg, individual mice 4-6, read-out: Plasma concentration of active compound
  concentration at 0.17 h: 79.6 ng/mL
male, ICR, mouse, plasma, iv, 1 mg/kg, intravenous 1.0 mg/kg, 0.5 h, Mean, read-out: Plasma concentration of active compound
  concentration at 0.5 h: 31.5 ng/mL
male, ICR, mouse, plasma, iv, 1 mg/kg, intravenous 1.0 mg/kg, 1.0 h, Mean, read-out: Plasma concentration of active compound
  concentration at 1 h: 7.02 ng/mL
male, ICR, mouse, plasma, iv, 1 mg/kg, intravenous 1.0 mg/kg, 2.0 h, Mean, read-out: Plasma concentration of active compound
  concentration at 2 h: 1.77 ng/mL
male, ICR, mouse, plasma, iv, 1 mg/kg, intravenous 1.0 mg/kg, 4.0 h, Mean, read-out: Plasma concentration of active compound
  concentration at 4 h: 2.26 ng/mL
male, ICR, mouse, plasma, iv, 1 mg/kg, intravenous 1.0 mg/kg, 4.0 h, individual mice 4-6, read-out: Plasma concentration of active compound
  concentration at 4 h: 2.3 ng/mL
male, ICR, mouse, plasma, iv, 1 mg/kg, intravenous 1.0 mg/kg, 6.0 h, Mean, read-out: Plasma concentration of active compound
  concentration at 6 h: 7.53 ng/mL
male, ICR, mouse, plasma, iv, 1 mg/kg, intravenous 1.0 mg/kg, 6.0 h, individual mice 4-6, read-out: Plasma concentration of active compound
  concentration at 6 h: 7.53 ng/mL
male, ICR, mouse, plasma, iv, 1 mg/kg, intravenous 1.0 mg/kg, 8.0 h, Mean, read-out: Plasma concentration of active compound
  concentration at 8 h: 0.84 ng/mL
male, ICR, mouse, plasma, iv, 1 mg/kg, intravenous 1.0 mg/kg, 8.0 h, individual mice 4-6, read-out: Plasma concentration of active compound
  concentration at 8 h: 0.7 ng/mL
male, ICR, mouse, plasma, oral, 10 mg/kg, Po 10 mg/kg vs IV 1.0 mg/kg, Mean ± SD, n = 3, read-out: F (absolute bioavailability)
  bioavailability: 55.5 ± 10.9%
[1]
  AUC(0-inf): 280 ± 55.8 ng·h/mL
  AUC(0-t): 275 ± 54.1 ng·h/mL
  half-life: 2.72 ± 2.47 h
  Cmax: 260 ± 63.2 ng/mL
male, ICR, mouse, plasma, po, 10 mg/kg, Po 10 mg/kg, Mean ± SD, n = 3, read-out: MRT0-t
  MRT last: 1.58 ± 0.86 h
male, ICR, mouse, plasma, po, 10 mg/kg, Po 10 mg/kg, Mean ± SD, n = 3, read-out: MRT0-∞
  MRT inf: 1.95 ± 1.42 h
male, ICR, mouse, plasma, po, 10 mg/kg, Po 10 mg/kg, Mean ± SD, n = 3, read-out: Tmax
  Tmax: 0.44 ± 0.49 h
[2]
  AUC(0-inf): 216 ng·h/mL
  AUC(0-t): 214 ng·h/mL
  Cmax: 197 ng/mL
male, ICR, mouse, plasma, po, 10 mg/kg, oral 10 mg/kg, 0.08 h, Mean, read-out: Plasma concentration of active compound
  concentration at 0.08 h: 141 ng/mL
male, ICR, mouse, plasma, po, 10 mg/kg, oral 10 mg/kg, 0.25 h, Mean, read-out: Plasma concentration of active compound
  concentration at 0.25 h: 203 ng/mL
male, ICR, mouse, plasma, po, 10 mg/kg, oral 10 mg/kg, 0.50 h, Mean, read-out: Plasma concentration of active compound
  concentration at 0.5 h: 97.5 ng/mL
male, ICR, mouse, plasma, po, 10 mg/kg, oral 10 mg/kg, 1.0 h, Mean, read-out: Plasma concentration of active compound
  concentration at 1 h: 147 ng/mL
male, ICR, mouse, plasma, po, 10 mg/kg, oral 10 mg/kg, 2.0 h, Mean, read-out: Plasma concentration of active compound
  concentration at 2 h: 23.5 ng/mL
male, ICR, mouse, plasma, po, 10 mg/kg, oral 10 mg/kg, 4.0 h, Mean, read-out: Plasma concentration of active compound
  concentration at 4 h: 7.75 ng/mL
male, ICR, mouse, plasma, po, 10 mg/kg, oral 10 mg/kg, 6.0 h, Mean, read-out: Plasma concentration of active compound
  concentration at 6 h: 7.36 ng/mL
male, ICR, mouse, plasma, po, 10 mg/kg, oral 10 mg/kg, 8.0 h, Mean, read-out: Plasma concentration of active compound
  concentration at 8 h: 2.71 ng/mL
[3]
  concentration at 12 h: 0.5 ng/mL
  concentration at 24 h: 1.32 ng/mL
[4]
  concentration at 12 h: 0.5 ng/mL
  concentration at 24 h: 1.32 ng/mL
Oral 10 mg/kg, 0.08 h, individual mice 1-3, 10 mg/kg
  Plasma concentration of active compound: 196.99 ng/mL and 152.22 ng/mL and 72.70 ng/mL
Oral 10 mg/kg, 0.25 h, individual mice 1-3, 10 mg/kg
  Plasma concentration of active compound: 126.87 ng/mL and 158.18 ng/mL and 323.37 ng/mL
Oral 10 mg/kg, 0.50 h, individual mice 1-3, 10 mg/kg
  Plasma concentration of active compound: 41.24 ng/mL and 119.50 ng/mL and 131.86 ng/mL
Oral 10 mg/kg, 1.0 h, individual mice 1-3, 10 mg/kg
  Plasma concentration of active compound: 107.54 ng/mL and 260.48 ng/mL and 71.98 ng/mL
Oral 10 mg/kg, 2.0 h, individual mice 1-3, 10 mg/kg
  Plasma concentration of active compound: 33.99 ng/mL and 12.86 ng/mL and 23.69 ng/mL
Oral 10 mg/kg, 4.0 h, individual mice 1-3, 10 mg/kg
  Plasma concentration of active compound: 7.47 ng/mL and 1.17 ng/mL and 14.60 ng/mL
Oral 10 mg/kg, 6.0 h, individual mice 1-3, 10 mg/kg
  Plasma concentration of active compound: 1.28 ng/mL and 13.43 ng/mL
Oral 10 mg/kg, 8.0 h, individual mice 1-3, 10 mg/kg
  Plasma concentration of active compound: 0.54 ng/mL and 4.88 ng/mL
